A value given as a limit tells only on which side of the number the result lay.

One experiment deals with PDGFR-α (Homo sapiens, UniProt P16234). In words: Kinase inhibition assay (ELISA). The experiment is classed as biochemical. Conditions: 1 µM ATP. The procedure:
(§1) To determine the interaction of our compounds with tyrosine kinases: PDGFR-α, cKIT, PDGFR-β, VEGFR-2 we used enzyme-linked immunosorbent assay (ELISA).
(§2) Determination plates preparation: The plates are processed by neutravidine for 2 h at 30°C. After washing thrice with TBS/0.1% Tween-20 and blocking with 1% BSA/TBS for 1 h at room temperature (RT) 96-well microtiter plates were washed thrice with TBS/0.1% Tween-20 again.
(§3) Reaction: After addition test compounds (in DMSO, DMSO final concentration - 5%) to reaction buffer (20 mM HEPES, pH 7.5, 15 mM MgCl2, 3 mM MnCl2, 2 mM DTT, 0.2 mM Na3VO4, 0.005% Triton X-100; PDGFR-α,: 0.05 µg/ml, 0.5 µg/ml Poly(G,T)-biotin; PDGFR-β: 0.05 µg/ml, 1 µg/ml Poly(G,T)-biotin; c-KIT: 0.03 µg/ml, 0.15 µg/ml Poly(G,T)-biotin; VEGFR-2: 0.07 µg/ml, 0.05 µg/ml Poly(G,T)-biotin) and preincubation of reaction for 10 min at RT and intensive agitation, ATP solution (PDGFR-α, - 1 µM, PDGFR-β - 0.5 µM, c-KIT - 60 µM, VEGFR-2: - 1.5 µM ATP in reaction buffer per well) was added to initiate reaction. Following incubation of mixture for 1 h at 30°C and intensive agitation the reaction was stopped by stop solution (20 mM HEPES, pH 7.5, 50 mM EDTA).
(§4) Kinase activity determination: The reaction mixture was transferred to determination plate. After mix incubation for 1 h at RT and intensive agitation the plates were washed thrice with TBS/0.1% Tween-20. Following mouse monoclonal 0.05 µg/ml Anti-p-Tyr (PY20) HRP antibodies (Santa Cruz Biotechnology) in PBS/BSA were added for 1 h at RT and intensive agitation. After washing, antibody binding was detected by tetramethylbenzidine (TMB) color development (Sigma). Measurement of A450 nm was carried out after addition of H2SO4
For orientation: In an ELISA, binding on a coated surface is turned into a signal by an enzyme label.

The next experiment deals with VEGFR-2 (Homo sapiens, UniProt P35968). In words: Kinase inhibition assay (ELISA). The experiment is classed as biochemical. Conditions: 1.5 µM ATP. The procedure:
as §1, §2, §3, §4

A further experiment has as its target cKIT (Homo sapiens, UniProt P10721). Nature of the experiment: Kinase inhibition assay (ELISA). The class given is biochemical. The conditions noted are these: 60 µM ATP. The method, then:
as §1, §2, §3, §4

The test system of a further experiment is A172. In words: MTT proliferation / cytotoxicity assay. The class given is cell-based, human. Conditions: Homo sapiens, A 172, 72 h, glioblastoma cell line. The procedure:
(§5) Cell culture. The human cancer cell lines A172, A375, A2780 and U251 were purchased from the American Type Culture Collection. All cells were routinely maintained in DMEM containing 10% fetal bovine serum (Omega Scientific), at 37°C in 5% C02.
(§6) Proliferation assay Inhibition of cell A172, A375, A2780 and U251 cell proliferation was assessed by a MTT assay (MTT = Thiazolyl Blue Tetrazolium Bromide) . Cells were inoculated into 96-well microtiter plates containing 0.5% fetal calf serum and incubated at 37°C, 5% CO2, 95% air, and 100% relative humidity for 24 h prior to addition of testing compounds. Following compounds addition, the plates were incubated for an additional 72 h before processing to measure the cell population. Each compound was tested at eight different concentrations in triplicate, as was a control sample. Growth inhibition of 50% (IC50) is calculated by analysis of the data in Prizm3.4 software.
(§7) Table 8 lists IC50 values for inhibition of growth of several cancer cell lines, including the glioblastoma cell lines A172 and U251, measured in a MTT cytotoxicity assay. Table 8. Data of cytotoxicity assay (MTT) for several cancer cell lines, IC50 [µM]

A further experiment has as its system A2780. Nature of the experiment: MTT proliferation / cytotoxicity assay. Conditions: Homo sapiens, A2780, 72 h. The class given is cell-based, human. The procedure:
as §5, §6, §7

In the next experiment the test system is U251. Nature of the experiment: MTT proliferation / cytotoxicity assay. The class given is cell-based, human. The conditions noted are these: Homo sapiens, U-251, 72 h, glioblastoma cell line. The procedure:
as §5, §6, §7

In the next experiment the test system is A375. Nature of the experiment: MTT proliferation / cytotoxicity assay. The class given is cell-based, human. The conditions noted are these: Homo sapiens, A-375, 72 h. The method, then: as §5, §6, §7

Sequence of VEGFR-2 (P35968 20-1356, species assumed): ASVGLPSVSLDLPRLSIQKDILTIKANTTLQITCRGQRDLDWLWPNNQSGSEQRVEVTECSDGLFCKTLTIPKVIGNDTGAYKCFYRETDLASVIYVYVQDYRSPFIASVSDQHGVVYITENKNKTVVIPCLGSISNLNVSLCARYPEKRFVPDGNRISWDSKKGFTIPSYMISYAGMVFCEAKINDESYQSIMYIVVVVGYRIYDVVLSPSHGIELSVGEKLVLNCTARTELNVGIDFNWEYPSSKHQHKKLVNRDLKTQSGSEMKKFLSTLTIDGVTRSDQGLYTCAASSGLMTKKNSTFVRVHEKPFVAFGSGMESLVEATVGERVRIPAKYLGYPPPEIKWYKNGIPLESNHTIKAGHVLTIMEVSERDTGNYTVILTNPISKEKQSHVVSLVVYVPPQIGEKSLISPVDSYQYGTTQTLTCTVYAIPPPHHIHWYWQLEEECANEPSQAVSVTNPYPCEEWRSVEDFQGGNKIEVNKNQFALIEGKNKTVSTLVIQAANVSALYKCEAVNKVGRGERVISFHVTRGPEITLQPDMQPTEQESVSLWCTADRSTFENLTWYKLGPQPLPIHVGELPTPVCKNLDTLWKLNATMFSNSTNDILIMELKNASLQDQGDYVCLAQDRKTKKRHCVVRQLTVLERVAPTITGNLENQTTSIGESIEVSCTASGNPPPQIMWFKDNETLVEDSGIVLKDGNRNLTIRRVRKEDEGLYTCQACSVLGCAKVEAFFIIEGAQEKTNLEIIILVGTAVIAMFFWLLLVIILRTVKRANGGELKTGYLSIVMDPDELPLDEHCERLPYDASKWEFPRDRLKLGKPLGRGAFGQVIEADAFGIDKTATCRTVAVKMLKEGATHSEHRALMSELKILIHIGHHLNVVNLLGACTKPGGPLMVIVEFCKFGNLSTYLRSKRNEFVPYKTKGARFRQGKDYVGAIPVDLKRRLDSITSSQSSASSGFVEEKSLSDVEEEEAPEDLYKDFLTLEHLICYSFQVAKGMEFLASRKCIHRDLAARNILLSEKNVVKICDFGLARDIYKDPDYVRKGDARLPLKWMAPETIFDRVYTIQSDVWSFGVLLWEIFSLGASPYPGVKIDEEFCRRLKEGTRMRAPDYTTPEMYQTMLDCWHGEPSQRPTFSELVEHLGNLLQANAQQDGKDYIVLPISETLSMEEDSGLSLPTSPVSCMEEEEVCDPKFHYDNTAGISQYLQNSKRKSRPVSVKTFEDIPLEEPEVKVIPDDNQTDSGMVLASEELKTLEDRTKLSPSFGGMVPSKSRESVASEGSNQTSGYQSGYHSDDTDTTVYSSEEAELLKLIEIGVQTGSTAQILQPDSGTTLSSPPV
Sequence of PDGFR-α (P16234 24-1089, species assumed): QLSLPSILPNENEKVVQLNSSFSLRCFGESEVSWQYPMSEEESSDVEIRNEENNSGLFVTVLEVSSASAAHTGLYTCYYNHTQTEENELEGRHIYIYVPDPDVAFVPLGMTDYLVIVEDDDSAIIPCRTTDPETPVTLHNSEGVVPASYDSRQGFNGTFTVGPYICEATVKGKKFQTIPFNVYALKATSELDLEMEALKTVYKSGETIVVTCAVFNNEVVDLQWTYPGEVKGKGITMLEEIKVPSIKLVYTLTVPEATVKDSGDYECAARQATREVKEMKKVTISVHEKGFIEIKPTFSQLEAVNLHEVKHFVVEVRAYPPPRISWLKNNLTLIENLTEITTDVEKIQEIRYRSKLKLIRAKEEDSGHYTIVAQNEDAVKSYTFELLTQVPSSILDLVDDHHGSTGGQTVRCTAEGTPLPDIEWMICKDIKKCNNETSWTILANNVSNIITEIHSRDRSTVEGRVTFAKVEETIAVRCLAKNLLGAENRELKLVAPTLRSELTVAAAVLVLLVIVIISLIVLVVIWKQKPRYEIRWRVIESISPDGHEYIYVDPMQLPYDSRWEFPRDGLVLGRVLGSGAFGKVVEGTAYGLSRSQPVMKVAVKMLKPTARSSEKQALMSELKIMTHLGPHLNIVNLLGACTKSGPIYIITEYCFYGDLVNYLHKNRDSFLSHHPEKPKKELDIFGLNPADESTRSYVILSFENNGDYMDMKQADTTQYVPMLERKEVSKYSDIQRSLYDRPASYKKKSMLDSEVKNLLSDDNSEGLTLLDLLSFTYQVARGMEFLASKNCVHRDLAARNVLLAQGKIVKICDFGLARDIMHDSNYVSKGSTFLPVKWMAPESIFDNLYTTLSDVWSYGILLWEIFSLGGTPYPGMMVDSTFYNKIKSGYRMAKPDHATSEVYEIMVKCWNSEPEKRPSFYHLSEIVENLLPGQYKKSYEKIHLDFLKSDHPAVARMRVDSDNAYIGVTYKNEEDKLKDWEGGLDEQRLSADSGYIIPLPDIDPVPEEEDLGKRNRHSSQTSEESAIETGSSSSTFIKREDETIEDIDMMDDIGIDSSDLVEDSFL
Sequence of cKIT (P10721 26-976): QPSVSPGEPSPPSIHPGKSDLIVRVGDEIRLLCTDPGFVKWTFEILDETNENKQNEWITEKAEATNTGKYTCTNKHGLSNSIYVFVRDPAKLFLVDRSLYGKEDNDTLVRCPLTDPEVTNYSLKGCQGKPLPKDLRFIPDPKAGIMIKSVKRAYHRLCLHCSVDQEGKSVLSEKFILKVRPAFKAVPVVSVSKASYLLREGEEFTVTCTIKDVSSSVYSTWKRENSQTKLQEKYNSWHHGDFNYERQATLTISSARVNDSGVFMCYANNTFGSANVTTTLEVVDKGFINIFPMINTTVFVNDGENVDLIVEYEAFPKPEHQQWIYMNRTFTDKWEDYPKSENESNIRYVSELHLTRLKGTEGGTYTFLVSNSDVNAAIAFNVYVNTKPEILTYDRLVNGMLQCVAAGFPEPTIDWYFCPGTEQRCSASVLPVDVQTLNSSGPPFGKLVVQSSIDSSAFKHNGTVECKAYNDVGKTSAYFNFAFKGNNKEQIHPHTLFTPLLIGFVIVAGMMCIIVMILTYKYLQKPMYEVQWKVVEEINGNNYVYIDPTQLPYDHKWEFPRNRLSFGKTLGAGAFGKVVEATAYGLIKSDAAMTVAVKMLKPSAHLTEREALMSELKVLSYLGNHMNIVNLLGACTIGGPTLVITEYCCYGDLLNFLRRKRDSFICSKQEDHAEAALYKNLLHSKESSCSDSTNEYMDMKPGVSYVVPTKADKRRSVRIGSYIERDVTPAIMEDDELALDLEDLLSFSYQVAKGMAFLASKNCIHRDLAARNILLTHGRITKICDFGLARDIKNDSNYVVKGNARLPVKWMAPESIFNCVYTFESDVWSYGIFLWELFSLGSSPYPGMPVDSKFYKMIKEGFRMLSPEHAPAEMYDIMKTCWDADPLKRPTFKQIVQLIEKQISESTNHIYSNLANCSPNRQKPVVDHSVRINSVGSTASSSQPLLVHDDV

As for `Fc1ccc(-c2cnc(Nc3cccc(CC4COC5(CCNCC5)C4)n3)s2)cc1` (stereo not shown) [Example 024, [5-(4-Fluoro-phenyl)-thiazol-2-yl]-[6-(1-oxa-8-aza-spiro[4.5]dec-3-ylmethyl)-pyridin-2-yl]-amine], the IC50 against PDGFR-α was < 10 nM; at VEGFR-2 it was > 10 nM; against cKIT, > 10 nM; with A172, ≤ 1 µM; in the experiment on A2780, ≤ 1 µM.

`OCCN1CCC(c2cccc(Nc3ncc(-c4ccnc(Cl)c4)s3)n2)CC1` [Example 046, 2-{6-[5-(2-Chloro-pyridin-4-yl)-thiazol-2-ylamino]-3',4',5',6'-tetrahydro-2'H-[2,4']bipyridinyl-1'-yl}-ethanol]: the half-inhibitory concentration (IC50) is < 10 nM at PDGFR-α, > 100 nM on VEGFR-2 and > 10 nM against cKIT.

`CNC1CCC(Cc2ccnc(Nc3ncc(-c4ccc(F)cc4)s3)c2)CC1` (stereo not shown) [Example 016, [5-(4-Fluoro-phenyl)-thiazol-2-yl]-[4-(4-methylamino-cyclohexylmethyl)-pyridin-2-yl]-amine]: the IC50 was < 10 nM against PDGFR-α; > 10 nM on VEGFR-2; < 10 nM against cKIT; > 1 µM in the experiment with A172; > 1 µM in the experiment on A2780.

Turning to `Fc1ccc(-c2cnc(Nc3cc(CC4CCC5CNCC54)ccn3)s2)cc1` (stereo not shown) [Example 018, [5-(4-Fluoro-phenyl)-thiazol-2-yl]-[4-(octahydro-cyclopenta[c]pyrrol-4-ylmethyl)-pyridin-2-yl]-amine], the IC50 against PDGFR-α was < 10 nM; against VEGFR-2, > 10 nM; on cKIT, < 10 nM; in the experiment on A172 it was > 1 µM; in the experiment with A2780, > 1 µM.

Regarding `OCCN1CCC(c2ccnc(Nc3ncc(/C=C/c4ccccc4)s3)c2)CC1` [Example 048, 2-{2'-[5-((E)-Styryl)-thiazol-2-ylamino]-3,4,5,6-tetrahydro-2H-[4,4']bipyridinyl-1-yl}-ethanol], the concentration for half-maximal inhibition (IC50) was > 10 nM on PDGFR-α, > 100 nM against VEGFR-2 and > 1000 nM on cKIT.

As for `Cc1cc(Nc2ncc(-c3ccccc3)s2)nc(C2CCN(CCO)CC2)n1` [Example 029, 2-{4-[4-Methyl-6-(5-phenyl-thiazol-2-ylamino)-pyrimidin-2-yl]-piperidin-1-yl}-ethanol], the half-maximal inhibitory concentration (IC50) at PDGFR-α was > 10 nM; against VEGFR-2, > 100 nM; against cKIT, < 10 nM; with A172 it was ≤ 1 µM; in the experiment on A2780, ≤ 1 µM; in the experiment on U251 it was > 1 µM.

With `CCCc1cnc(Nc2cccc(C3CCN(C(=O)C(C)(C)N)CC3)n2)s1` [Example 041, 2-Amino-2-methyl-1-[6-(5-propyl-thiazol-2-ylamino)-3',4',5',6'-tetrahydro-2'H-[2,4']bipyridinyl-1'-yl]-propan-1-one], the IC50 is > 100 nM at cKIT, ≤ 1 µM with A2780 and > 1 µM with A375.

Consider `CC(C)(C)Cc1cnc(Nc2cccc(C3CCN(C(=O)C(C)(C)N)CC3)n2)s1` [Example 047, 2-Amino-1-{6-[5-(2,2-dimethylpropyl)-thiazol-2-ylamino]-3',4',5',6'-tetrahydro-2'H-[2,4']bipyridinyl-1'-yl}-2-methyl-propan-1-one], for which the IC50 was > 100 nM on PDGFR-α; > 100 nM against VEGFR-2; > 1000 nM on cKIT; ≤ 1 µM in the experiment with A2780; > 1 µM with A375.

In the case of `OCCN1CCC(CO)(c2cccc(Nc3ncc(-c4ccccc4)s3)n2)CC1` [Example 042, 2-[4'-Hydroxymethyl-6-(5-phenyl-thiazol-2-ylamino)-3',4',5',6'-tetrahydro-2'H-[2,4']bipyridinyl-1'-yl]-ethanol], the half-maximal inhibitory concentration (IC50) against PDGFR-α was > 100 nM; on VEGFR-2, > 10000 nM; against cKIT it was > 100 nM.

Regarding `OCCN1CCC(c2cncc(Nc3ncc(-c4ccccc4)s3)n2)CC1` [Example 030, 2-{4-[6-(5-Phenyl-thiazol-2-ylamino)-pyrazin-2-yl]-piperidin-1-yl}-ethanol], the IC50 on PDGFR-α was > 10 nM; at VEGFR-2 it was > 100 nM; against cKIT, > 100 nM.

In the case of `c1ccc(-c2cnc(Nc3cc(CC4CCCNCC4)ccn3)s2)cc1` (stereo not shown) [Example 026, (4-Azepan-4-ylmethyl-pyridin-2-yl)-(5-phenyl-thiazol-2-yl)-amine], the IC50 was > 1 µM in the experiment on A172, ≤ 1 µM in the experiment on A2780, > 1 µM in the experiment on A375 and > 10 µM with U251.

Turning to `CN(C)CC1(c2cccc(Nc3ncc(-c4ccccc4)s3)n2)CCN(CCO)CC1` [Example 043, 2-[4'-Dimethylaminomethyl-6-(5-phenyl-thiazol-2-ylamino)-3',4',5',6'-tetrahydro-2'H-[2,4']bipyridinyl-1'-yl]-ethanol], the IC50 is > 1000 nM at PDGFR-α, > 10000 nM against VEGFR-2 and > 10000 nM on cKIT.

Consider `CC(C)(C)OC(=O)N1CCC(c2cccc(Nc3ncc(C#CC4CC4)s3)n2)CC1` [Example 045, 6-(5-Cyclopro-pylethynyl-thiazol-2-ylamino)-3',4',5',6'-tetrahydro-2'H-[2,4']bipyridinyl-1'-carboxylic acid tert-butyl ester], for which the values for the half-inhibitory concentration (IC50) against PDGFR-α, against VEGFR-2 and against cKIT were > 10000 nM, > 10 nM and > 10000 nM, respectively.

Take `c1ccc(-c2cnc(Nc3cc(CC4CCNC4)ccn3)s2)cc1` (stereo not shown) [Example 014, (5-Phenyl-thiazol-2-yl)-(4-pyrrolidin-3-ylmethyl-pyridin-2-yl)-amine]: the IC50 was < 10 nM against PDGFR-α, > 10 nM at VEGFR-2 and > 10 nM against cKIT.

As for `Cc1nc(Nc2ncc(-c3ccccc3)s2)cc(C2CCN(C(=O)C(C)(C)N)CC2)n1` [Example 031, 2-Amino-2-methyl-1-{4-[2-methyl-6-(5-phenyl-thiazol-2-ylamino)-pyrimidin-4-yl]-piperidin-1-yl}-propan-1-one], the 50% inhibitory concentration (IC50) at PDGFR-α was < 10 nM; against VEGFR-2, > 10 nM; against cKIT, > 10 nM; in the experiment with A172 it was > 1 µM; in the experiment on A2780 it was > 1 µM; in the experiment on U251, > 10 µM.

In the case of `c1ccc(-c2cnc(Nc3cc(C4CCCN4)ccn3)s2)cc1` (stereo not shown) [Example 027, (5-Phenyl-thiazol-2-yl)-(4-pyrrolidin-2-yl-pyridin-2-yl)-amine], the concentration for half-maximal inhibition (IC50) is < 10 nM against PDGFR-α, > 10 nM on VEGFR-2 and > 10 nM on cKIT.

With `Fc1ccc(-c2cnc(Nc3cccc(CC4CCC5CNCC54)n3)s2)cc1` (stereo not shown) [Example 020, [5-(4-Fluoro-phenyl)-thiazol-2-yl]-[6-(octahydro-cyclopenta[c]pyrrol-4-ylmethyl)-pyridin-2-yl]-amine], the half-inhibitory concentration (IC50) is < 10 nM against PDGFR-α; > 100 nM against VEGFR-2; < 10 nM against cKIT; ≤ 1 µM with A172; < 1 µM with A2780.

Consider `CN1CCC(Cc2ccnc(Nc3ncc(-c4ccc(F)cc4)s3)c2)CC1` [Example 004, [5-(4-Fluoro-phenyl)-thiazol-2-yl]-[4-(1-methyl-piperidin-4-ylmethyl)-pyridin-2-yl]-amine], for which the IC50 with A172 is > 1 µM; in the experiment on A2780, > 1 µM; with A375, > 1 µM; in the experiment with U251, > 10 µM.

For the molecule `CN1CCOCC(Cc2ccnc(Nc3ncc(-c4ccc(F)cc4)s3)c2)C1` (stereo not shown) [Example 010, [5-(4-Fluoro-phenyl)-thiazol-2-yl]-[4-(4-methyl-[1,4]oxazepan-6-ylmethyl)-pyridin-2-yl]-amine], the IC50 in the experiment with A172 is > 1 µM; with A2780 it was > 1 µM; in the experiment on A375 it was > 1 µM; in the experiment with U251, > 10 µM.

For orientation: IC50 means the concentration that gives 50% inhibition. A lower IC50 goes with inhibition by little substance.

(Values after EP2719696A1, “NOVEL KINASE INHIBITORS” (Asinex Limited, priority 2011, dated 2012).)
